Assay results published in patent US20230140430A1, “1H-PYRAZOLO[4,3-d]PYRIMIDINE COMPOUNDS AS TOLL-LIKE RECEPTOR 7 (TLR7) AGONISTS” (BRISTOL-MYERS SQUIBB COMPANY, priority 2020, published 2023).
Like-named read-outs stand apart in the source and are kept apart here.

How the values were obtained:
human TLR7 = target: T1, human TLR7 (Homo sapiens, UniProt Q9NYK1); assay: Human TLR7 agonist activity assay (HEK-Blue TLR7 SEAP reporter); type: cell-based; conditions: HEK-Blue TLR7 cells, 18 h treatment, average where assay was performed multiple times, read-out: hTLR7 Agonism EC50
T1 construct: host or cells: HEK-Blue TLR7 cells (engineered human embryonic kidney cells)
T1 sequence (Q9NYK1 27-1049): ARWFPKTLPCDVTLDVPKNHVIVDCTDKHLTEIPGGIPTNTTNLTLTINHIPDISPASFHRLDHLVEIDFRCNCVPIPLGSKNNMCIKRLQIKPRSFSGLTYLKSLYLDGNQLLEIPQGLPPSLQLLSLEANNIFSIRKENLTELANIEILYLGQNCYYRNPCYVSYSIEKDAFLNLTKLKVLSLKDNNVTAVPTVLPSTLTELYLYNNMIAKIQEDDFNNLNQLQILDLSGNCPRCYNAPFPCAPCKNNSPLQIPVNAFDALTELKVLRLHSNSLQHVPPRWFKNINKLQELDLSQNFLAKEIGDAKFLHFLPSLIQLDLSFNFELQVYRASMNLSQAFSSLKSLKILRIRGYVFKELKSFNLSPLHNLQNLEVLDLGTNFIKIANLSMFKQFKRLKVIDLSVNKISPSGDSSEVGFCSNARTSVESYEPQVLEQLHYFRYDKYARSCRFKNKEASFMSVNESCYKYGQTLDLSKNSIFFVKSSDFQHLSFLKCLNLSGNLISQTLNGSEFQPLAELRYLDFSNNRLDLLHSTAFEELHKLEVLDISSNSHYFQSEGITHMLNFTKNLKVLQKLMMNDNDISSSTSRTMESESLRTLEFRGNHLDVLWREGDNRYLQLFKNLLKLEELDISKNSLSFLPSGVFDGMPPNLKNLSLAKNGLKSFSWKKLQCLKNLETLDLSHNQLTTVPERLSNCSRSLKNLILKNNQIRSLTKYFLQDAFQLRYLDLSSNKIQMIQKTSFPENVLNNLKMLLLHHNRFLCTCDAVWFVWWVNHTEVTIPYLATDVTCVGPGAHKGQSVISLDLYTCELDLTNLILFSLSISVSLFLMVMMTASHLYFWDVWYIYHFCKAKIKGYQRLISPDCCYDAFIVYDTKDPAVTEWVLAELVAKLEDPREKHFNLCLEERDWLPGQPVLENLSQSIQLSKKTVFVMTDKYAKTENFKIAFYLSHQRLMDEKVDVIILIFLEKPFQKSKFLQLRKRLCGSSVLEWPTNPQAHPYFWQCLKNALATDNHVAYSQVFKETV
Protocol: This procedure describes a method for assaying human TLR7 (hTLR7) agonist activity of the compounds disclosed in this specification.
HEK-Blue™ TLR7 cells were added to each well of a 384-well tissue-culture plate (15,000 cells per well) and incubated 16-18 h at 37° C., 5% CO2. Compounds (100 nl) were dispensed into wells containing the HEK-Blue™ TLR cells and the treated cells were incubated at 37° C., 5% CO2. After 18 h treatment ten microliters of freshly-prepared Quanti-Blue™ reagent (Invivogen) was added to each well, incubated for 30 min (37° C., 5% CO2) and SEAP levels measured using an Envision plate reader (OD=620 nm).

CD69 = assay: Induction of CD69 in human whole blood; type: cell-based
Protocol: The induction of Type I interferon (IFN) MX-1 genes and the B-cell activation marker CD69 are downstream events that occur upon activation of the TLR7 pathway. The following is a human whole blood assay that measures their induction in response to a TLR7 agonist.
Heparinized human whole blood was harvested from human subjects and treated with test TLR7 agonist compounds at 1 mM. The blood was diluted with RPMI 1640 media and Echo was used to predot 10 nL per well giving a final concentration of 1 uM (10 nL in 10 uL of blood). After mixing on a shaker for 30 sec, the plates were covered and placed in a 37° C. chamber for o/n=17 hrs. Fixing/lysis buffer was prepared (5×->1× in H2O, warm at 37° C.; Cat #BD 558049) and kept the perm buffer (on ice) for later use.
For surface markers staining (CD69): prepared surface Abs: 0.045 ul hCD14-FITC (ThermoFisher Cat #MHCD1401)+0.6 ul hCD19-ef450 (ThermoFisher Cat #48-0198-42)+1.5 ul hCD69-PE (cat #BD555531)+0.855 ul FACS buffer. Added 3 ul/well, spin1000 rpm for 1 min and mixed on shaker for 30 sec, put on ice for 30 mins. Stop stimulation after 30 min with 70 uL of prewarmed 1× fix/lysis buffer and use Feliex mate to resuspend (15 times, change tips for each plate) and incubate at 37 C for 10 min.
Centrifuge at 2000 rpm for 5 min aspirate with HCS plate washer, mix on shaker for 30 sec and then wash with 70 uL in dPBS and pelleted 2×s (2000 rpm for 5 min) and 50 ul wash in FACS buffer pelleted 1×s (2000 rpm for 5 min). Mix on shaker for 30 sec. For Intracellular markers staining (MX-1): Add 50 ul of BD Perm buffer III and mix on shaker for 30 sec. Incubate on ice for 30 minutes (in the dark). Wash with 50 uL of FACS buffer 2× (spin @2300 rpm×5 min after perm) followed by mixing on shaker for 30 sec. Resuspended in 20 ul of FACS buffer containing MX1 antibody ( )(4812)-Alexa 647: Novus Biologicals #NBP2-43704AF647) 20 ul FACS bf+0.8 ul hlgG+0.04 ul MX-1. Spin 1000 rpm for 1 min, mix on shaker for 30se and the samples were incubated at RT in the dark for 45 minutes followed by washing 2×FACS buffer (spin @2300 rpm×5 min after perm). Resuspend 20 ul (35 uL total per well) of FACS buffer and cover with foil and place in 4° C. to read the following day. Plates were read on iQuePlus. The results were loaded into toolset and […] curves are generated in curve master. The y-axis 100% is set to 1 uM of resiquimod.

[1] = human whole blood, 17 hrs, CD69 surface staining, 100% set to 1 uM of resiquimod, average where assay was performed multiple times, read-out: hWB CD69 EC50
[2] = Homo sapiens, 17 h, read-out: hWB CD69 EC50 (nM)

Structure (SMILES) | EC50 (human TLR7) | EC50 (CD69; [1]) | EC50 (CD69; [2])
CCC[C@@H](CCO)Nc1nc(N)nc2cnn(Cc3ccc(C(=O)NCC4CCNCC4)cc3OC)c12 [Compound 101, 4-[(5-amino-7-{[(3S)-1-hydroxyhexan-3-yl]amino}-1H-pyrazolo[4,3-d]pyrimidin-1-yl)methyl]-3-methoxy-N-[(piperidin-4-yl)methyl]benzamide] | 1300 nM | ≥ 1000 nM | –
CCCCNc1nc(N)nc2cnn(Cc3ccc(C(=O)NC4CCOCC4)cc3OC)c12 [Compound 102, 4-{[5-amino-7-(butylamino)-1H-pyrazolo[4,3-d]pyrimidin-1-yl]methyl}-3-methoxy-N-(oxan-4-yl)benzamide] | – | ≥ 1000 nM | –
CCCCNc1nc(N)nc2cnn(Cc3ccc(C(=O)NC4CCC4)cc3OC)c12 [Compound 103, 4-{[5-amino-7-(butylamino)-1H-pyrazolo[4,3-d]pyrimidin-1-yl]methyl}-N-cyclobutyl-3-methoxybenzamide] | 1660 nM | ≥ 1000 nM | –
CCCCNc1nc(N)nc2cnn(Cc3ccc(C(=O)N4CCNCC4)cc3OC)c12 [Compound 104, N7-butyl-1-{[2-methoxy-4-(piperazine-1-carbonyl)phenyl]methyl}-1H-pyrazolo[4,3-d]pyrimidine-5,7-diamine] | 40.7 nM | 120 nM | –
CCCCNc1nc(N)nc2cnn(Cc3ccc(C(=O)N4CCN(CCO)CC4)cc3OC)c12 [Compound 105, 2-[4-(4-{[5-amino-7-(butylamino)-1H-pyrazolo[4,3-d]pyrimidin-1-yl]methyl}-3-methoxybenzoyl)piperazin-1-yl]ethan-1-ol] | 32.6 nM | 32.1 nM | –
CCCCNc1nc(N)nc2cnn(Cc3ccc(C(=O)N4CCN(C)CC4)cc3OC)c12 [Compound 106, N7-butyl-1-{[2-methoxy-4-(4-methylpiperazine-1-carbonyl)phenyl]methyl}-1H-pyrazolo[4,3-d]pyrimidine-5,7-diamine] | 20.8 nM | 4.5 nM | –
CCCCNc1nc(N)nc2cnn(Cc3ccc(C(=O)N4CCN(C(C)=O)CC4)cc3OC)c12 [Compound 107, 1-[4-(4-{[5-amino-7-(butylamino)-1H-pyrazolo[4,3-d]pyrimidin-1-yl]methyl}-3-methoxybenzoyl)piperazin-1-yl]ethan-1-one] | 264 nM | 93.4 nM | –
CCCCNc1nc(N)nc2cnn(Cc3ccc(C(=O)N4CCN(CC(F)(F)F)CC4)cc3OC)c12 [Compound 108, N7-butyl-1-({2-methoxy-4-[4-(2,2,2-trifluoroethyl)piperazine-1-carbonyl]phenyl}methyl)-1H-pyrazolo[4,3-d]pyrimidine-5,7-diamine] | 602 nM | ≥ 1000 nM | –
CCCCNc1nc(N)nc2cnn(Cc3ccc(C(=O)N4CCC(N(C)C)CC4)cc3OC)c12 [Compound 109, N7-butyl-1-({4-[4-(dimethylamino)piperidine-1-carbonyl]-2-methoxyphenyl}methyl)-1H-pyrazolo[4,3-d]pyrimidine-5,7-diamine] | 29.7 nM | 49.6 nM | –
CCCCNc1nc(N)nc2cnn(Cc3ccc(C(=O)N4CCCN(C)CC4)cc3OC)c12 [Compound 110, N7-butyl-1-{[2-methoxy-4-(4-methyl-1,4-diazepane-1-carbonyl)phenyl]methyl}-1H-pyrazolo[4,3-d]pyrimidine-5,7-diamine] | 16.3 nM | 3.9 nM | –
CCCCNc1nc(N)nc2cnn(Cc3ccc(C(=O)NCCN(C)C)cc3OC)c12 [Compound 111, 4-{[5-amino-7-(butylamino)-1H-pyrazolo[4,3-d]pyrimidin-1-yl]methyl}-N-[2-(dimethylamino)ethyl]-3-methoxybenzamide] | 78 nM | 6.8 nM | –
CCCCNc1nc(N)nc2cnn(Cc3ccc(C(=O)N4CCC(CO)CC4)cc3OC)c12 [Compound 112, [1-(4-{[5-amino-7-(butylamino)-1H-pyrazolo[4,3-d]pyrimidin-1-yl]methyl}-3-methoxybenzoyl)piperidin-4-yl]methanol] | 154 nM | 81.9 nM | –
CCCCNc1nc(N)nc2cnn(Cc3ccc(C(=O)N4CCC(O)CC4)cc3OC)c12 [Compound 113, 1-(4-{[5-amino-7-(butylamino)-1H-pyrazolo[4,3-d]pyrimidin-1-yl]methyl}-3-methoxybenzoyl)piperidin-4-ol] | 111 nM | 106 nM | –
CCCCNc1nc(N)nc2cnn(Cc3ccc(C(=O)NC4CCN(C)CC4)cc3OC)c12 [Compound 114, 4-{[5-amino-7-(butylamino)-1H-pyrazolo[4,3-d]pyrimidin-1-yl]methyl}-3-methoxy-N-(1-methylpiperidin-4-yl)benzamide] | 68.9 nM | – | 24.4 nM
CCCCNc1nc(N)nc2cnn(Cc3ccc(C(=O)N4CCNC(=O)C4)cc3OC)c12 [Compound 115, 4-(4-{[5-amino-7-(butylamino)-1H-pyrazolo[4,3-d]pyrimidin-1-yl]methyl}-3-methoxybenzoyl)piperazin-2-one] | 384 nM | 224 nM | –
CCCCNc1nc(N)nc2cnn(Cc3ccc(C(=O)N4CCC(CCO)CC4)cc3OC)c12 [Compound 116, 2-[1-(4-{[5-amino-7-(butylamino)-1H-pyrazolo[4,3-d]pyrimidin-1-yl]methyl}-3-methoxybenzoyl)piperidin-4-yl]ethan-1-ol] | 41.6 nM | 42.6 nM | –
CCCCNc1nc(N)nc2c(C)nn(Cc3ccc(C(=O)NC4CCN(C)CC4)cc3OC)c12 [Compound 117, 4-{[5-amino-7-(butylamino)-3-methyl-1H-pyrazolo[4,3-d]pyrimidin-1-yl]methyl}-3-methoxy-N-(1-methylpiperidin-4-yl)benzamide] | 467 nM | – | 56.9 nM
CCCCNc1nc(N)nc2c(C)nn(Cc3ccc(C(=O)N4CCN(CCO)CC4)cc3OC)c12 [Compound 118, 2-[4-(4-{[5-amino-7-(butylamino)-3-methyl-1H-pyrazolo[4,3-d]pyrimidin-1-yl]methyl}-3-methoxybenzoyl)piperazin-1-yl]ethan-1-ol] | 405 nM | 63.3 nM | –
CCCCNc1nc(N)nc2c(C)nn(Cc3ccc(C(=O)N4CCNC(=O)C4)cc3OC)c12 [Compound 119, 4-(4-{[5-amino-7-(butylamino)-3-methyl-1H-pyrazolo[4,3-d]pyrimidin-1-yl]methyl}-3-methoxybenzoyl)piperazin-2-one] | 968 nM | 332 nM | –
CCCCNc1nc(N)nc2cnn(Cc3ccc(C(=O)N4CCN(CCO)CC4)cc3OC(F)F)c12 [Compound 120, 2-[4-(4-{[5-amino-7-(butylamino)-1H-pyrazolo[4,3-d]pyrimidin-1-yl]methyl}-3-(difluoromethoxy)benzoyl)piperazin-1-yl]ethan-1-ol] | 1200 nM | 94.6 nM | –
